According to patent US6465187B1, “Method of treatment” (Innoventus Project AB, priority 2000, dated 2002):
Like-named read-outs stand apart in the source and are kept apart here.

Experiments:
A1 gene = test: RNAse Protection Assay (RPA) of A1 gene expression in MCP5/L mast cells; type: cell-based, mouse
Procedure: Activation of mast cells in vitro. For FcεRI-dependent activation, MCP5/L cells were resuspended at 1×10^6 cells/ml and sensitized using a monoclonal murine IgE anti-TNP (trinitrophenyl) (IgEl-b4, ATCC, Manassas, Va.) antibody (15% hybridoma supernatant) for 90 min. The cells were washed twice with warm medium, followed by challenge with 1 μg/ml TNP-BSA for time periods indicated. For cell viability assays, both the anitbody sensitization and the anitgen challenge were performed in RPMI medium supplemented with 0.5% BSA (Sigma) at 37° C. in a humidified incubator containing 5% CO2. For gene regulation studies, all the incubations were carried out in RPMI medium supplemented with 5% fetal bovine serum and antibiotics on a rocker platform. In some experiments, cells were cross-linked in the medium containing 1 mM EDTA or cells were incubated in ice-cold water during FcεRI cross-linking. Where indicated, various inhibitors were introduced to test their effects on A1 regulation after FcεRI cross-linking. These include bisindolylmaleimid (100 nM), wortmannin (100 nM), SB 203580 (pyridinylimidazole compound, inhibitor of p 38 mitogen-activated protein kinase) (1 μM), PD 98059 (2-(2-amino-3-methoxyphenyl)-4-oxo-4H-[1]benzopyran, inhibitor of mitogen-activated protein kinase Kinase-1 (MEK1)) (10 μM), genistein (1 μM), suramin (100 μM), cyclosporin A (2 μg/ml), dexamethasone (1 μM) and cycloheximide (10 μg/ml). Dexamethasone and suramin were added 14 hr and 24 hr, respectively, before IgE sensitization. All the other inhibitors were added at the same time as FcεRI aggregation. […]
Isolation of RNA and RNAse Protection Assay (RPA) analysis. […] Pixel intensity was determined using a phosphoimaging device. Levels of each gene transcript were quantified by MacBas V2.2 (Fuji Photo Film Co. Ltd., Japan). […]

MCP5/L cells [1] = test: Cell viability by trypan blue exclusion in medium deprived of serum and growth factors; type: cell-based, mouse; conditions: 4 days in medium deprived of serum and growth factors, FIG. 7
Procedure: The growth factor dependent mouse mast cell line MCP5/L was maintained in the same medium described above. For cell viability assays, the cell suspension was mixed with the vital dye, trypan blue, and only the number of live cells was scored.
For cell viability assays, both the anitbody sensitization and the anitgen challenge were performed in RPMI medium supplemented with 0.5% BSA (Sigma) at 37° C. in a humidified incubator containing 5% CO2.
Cell viability measurement. Trypan blue exclusion assay was used in all of the cell survival experiments. In brief, cell suspension was mixed with the vital dye, trypan blue, and the number of live cells was scored.

MCP5/L cells [2] = conditions: IgE-receptor cross-linkage 30 min, various concentrations of EDTA, FIG. 8B
Procedure: Activation of mast cells in vitro. For FcεRI-dependent activation, MCP5/L cells were resuspended at 1×10^6 cells/ml and sensitized using a monoclonal murine IgE anti-TNP (trinitrophenyl) (IgEl-b4, ATCC, Manassas, Va.) antibody (15% hybridoma supernatant) for 90 min. The cells were washed twice with warm medium, followed by challenge with 1 μg/ml TNP-BSA for time periods indicated. For cell viability assays, both the anitbody sensitization and the anitgen challenge were performed in RPMI medium supplemented with 0.5% BSA (Sigma) at 37° C. in a humidified incubator containing 5% CO2. […]
Measurement of release. […] The reaction was stopped by adding glycine (0.2 M, pH 10.7) into each well and the absorbance was measured. Percentage of β-hexosaminidase release is calculated as the absorbance of the supernatant over that of the combination of supernatant and lysate. […]
Effects of cold incubation and EDTA treatment on A1 induction and mast cell degranulation. […] (B) and (C) levels of β-hexosaminidase (β-hex) in the supernatants from either control cells or cells stimulated through IgE-receptor cross-linkage for 30 min, in the absence or presence of various concentrations of EDTA (B), or in cold incubation (C), were determined as a measurement of activation and de-granulation by an enzymatic colorimetric assay

Question: With `C[C@H](CCC(=O)O)C[C@H](C)C[C@H](C)C(=O)/C=C(\O)[C@H](C)C[C@H](C)C/C=C/[C@@H](C)[C@@H](O)[C@@H](C)[C@@H](O)C[C@@H]1CC[C@@](C)([C@H]2CC[C@@](C)([C@@H](C)O)O2)O1` [ionomycin] as the molecule, how does the “A1 gene expression (transcription) induced by the compound alone” value (A1 gene; MCP5/L cells exposed for 6 hr, c48/80 at concentrations of up to 1 mg/ml, FIG. 7) read?
Answer: Its value is “induced expression of A1”.

Question: What about the “Survival of mast cells treated with the compound” value (MCP5/L cells [1]) of the same molecule?
Answer: The value was “promoted mast cell survival”.

Question: For `O=C(O)CN(CCN(CC(=O)O)CC(=O)O)CC(=O)O` [EDTA], which “A1 induction by FcεRI aggregation in the presence of inhibitor” value (A1 gene) is on record?
Answer: Its value is “blocked A1 expression”.

Question: What about the “β-hexosaminidase release following FcεRI aggregation in the presence of the compound” value (MCP5/L cells [2]) of the same molecule?
Answer: Its value is “inhibit release of mast cell granular enzyme β-hexosaminidase”.

Question: How did the “A1 induction by FcεRI aggregation in the presence of inhibitor” value (A1 gene; MCP5/L cells, FcεRI crosslinkage 6 hr, wortmannin 100 nM, cyclosporin A 2 μg/ml, cycloheximide 10 μg/ml, dexamethasone 1 μM, EDTA 1 mM, FIG. 8A, 9) turn out when `C[C@@H]1C[C@@H]([C@H](O)CC2CC(=O)NC(=O)C2)C(=O)[C@@H](C)C1` [cycloheximide] was run?
Answer: Its value is “could completely block A1 induction”.
